# Results: patent US20150105252A1, “SUBSTITUTED PYRAZOLES AS HERBICIDES” (E I DU PONT DE NEMOURS AND COMPANY, priority 2013, published 2015)
# Experiments:
# barnyardgrass [1] = experiment: Test A postemergence; type: in vivo, Echinochloa crus-galli
# How it was run: (§1)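 Ratings express plant response from 0 (no effect) to 100 (complete control), judged visually against untreated controls after approximately 10 days in the greenhouse. Preemergence applications were made as directed soil sprays onto seeded loam–sand mix, and postemergence applications onto 2–10 cm plants at one- to two-leaf stage.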
# oat, wild = experiment: Test C postemergence; type: in vivo, Avena fatua; conditions: for Plant response rating (scale of 0 to 100 where 0 is no effect and 100 is complete control), Oat, Wild: Postemergence, 31 g ai/ha, visually evaluated after 13 to 15 days; for Oat, Wild plant response rating / Plant response rating, Oat, Wild: postemergence; for Oat, Wild plant response rating: 62 g ai/ha, scale 0 to 100
# How it was run: (§2)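 Greenhouse pot test: preemergence application onto freshly seeded loam/sand mix, postemergence application onto seedlings (1–4 leaves, 2–18 cm) in peat-vermiculite substrate. Responses scored visually 13 to 15 days later relative to controls, where 0 means no effect and 100 means complete control; a dash indicates no result.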
# kochia = experiment: Test C postemergence; type: in vivo, Kochia scoparia; conditions: for Plant response rating (scale of 0 to 100 where 0 is no effect and 100 is complete control), Kochia: Postemergence, 31 g ai/ha, visually evaluated after 13 to 15 days; for Kochia plant response rating / Plant response rating, Kochia: postemergence; for Kochia plant response rating: 62 g ai/ha, scale 0 to 100
# How it was run: as §2
# barnyardgrass [2] = experiment: Test A preemergence; type: in vivo, Echinochloa crus-galli; conditions: preemergence
# How it was run: as §1
# pigweed = experiment: Test A postemergence; type: in vivo, Amaranthus retroflexus
# How it was run: as §1
# oilseed rape = experiment: Test C postemergence; type: in vivo, Brassica napus; conditions: for Plant response rating (scale of 0 to 100 where 0 is no effect and 100 is complete control), Oilseed Rape: Postemergence, 31 g ai/ha, visually evaluated after 13 to 15 days; for Oilseed Rape plant response rating / Plant response rating, Oilseed Rape: postemergence; for Oilseed Rape plant response rating: 62 g ai/ha, scale 0 to 100
# How it was run: as §2
# barnyardgrass [3] = experiment: Test C preemergence; type: in vivo, Echinochloa crus-galli; conditions: for Plant response rating (scale of 0 to 100), Barnyardgrass: Preemergence, 250 g ai/ha
# How it was run: as §2
# morningglory [4] = experiment: Test A postemergence; type: in vivo, Ipomoea spp.
# How it was run: as §1
# ryegrass, Italian = experiment: Test C postemergence; type: in vivo, Lolium multiflorum; conditions: for Plant response rating (scale of 0 to 100 where 0 is no effect and 100 is complete control), Ryegrass, Italian: Postemergence, 31 g ai/ha, visually evaluated after 13 to 15 days; for Ryegrass, Italian plant response rating / Plant response rating, Ryegrass, Italian: postemergence; for Ryegrass, Italian plant response rating: 62 g ai/ha, scale 0 to 100
# How it was run: as §2
# crabgrass, large [5] = experiment: Test C preemergence; type: in vivo, Digitaria sanguinalis; conditions: for Plant response rating (scale of 0 to 100), Crabgrass, Large: Preemergence, 250 g ai/ha
# How it was run: as §2
# nutsedge, yellow = experiment: Test C preemergence; type: in vivo, Cyperus esculentus; conditions: for Plant response rating (scale of 0 to 100), Nutsedge, Yellow: Preemergence, 250 g ai/ha
# How it was run: as §2
# corn = experiment: Test A postemergence; type: in vivo, Zea mays
# How it was run: as §1
# soybean = experiment: Test C postemergence; type: in vivo, Glycine max; conditions: for Plant response rating (scale of 0 to 100 where 0 is no effect and 100 is complete control), Soybean: Postemergence, 31 g ai/ha, visually evaluated after 13 to 15 days; for Soybean plant response rating / Plant response rating, Soybean: postemergence; for Soybean plant response rating: 62 g ai/ha, scale 0 to 100
# How it was run: as §2
# morningglory [6] = experiment: Test C preemergence; type: in vivo, Ipomoea coccinea; conditions: for Plant response rating (scale of 0 to 100), Morningglory: Preemergence, 250 g ai/ha
# How it was run: as §2
# velvetleaf = experiment: Test C preemergence; type: in vivo, Abutilon theophrasti; conditions: for Plant response rating (scale of 0 to 100), Velvetleaf: Preemergence, 250 g ai/ha
# How it was run: as §2
# crabgrass, large [7] = experiment: Test A postemergence; type: in vivo, Digitaria sanguinalis
# How it was run: as §1
# [8] = Postemergence, 500 g ai/ha, visual rating after approx. 10 days, 0 to 100 scale (0 no effect, 100 complete control)
# [9] = postemergence, 125 g ai/ha, about 10 days, visual rating on 0 to 100 scale (0 no effect, 100 complete control)
# [10] = 250 g ai/ha, scale 0 to 100 (0 no effect, 100 complete control)
# [11] = 125 g ai/ha, scale 0 to 100, 0 no effect, 100 complete control
# [12] = 125 g ai/ha, visual injury, 0 to 100 scale, approx. 10 days
# [13] = 500 g ai/ha, visual injury after approx. 10 days, 0 to 100 scale (0 no effect, 100 complete control)
# [14] = preemergence, 31 g ai/ha, scale 0 to 100 (0 no effect, 100 complete control), 13 to 15 days
# [15] = preemergence, 62 g ai/ha, scale 0 to 100 (0 no effect, 100 complete control), 13 to 15 days
# [16] = preemergence, 125 g ai/ha, scale 0 to 100, 0 is no effect, 100 is complete control
# [17] = preemergence, 31 g ai/ha, visual rating, scale 0 to 100 (0 no effect, 100 complete control), 13 to 15 days
# [18] = Postemergence, 500 g ai/ha, 0 to 100 scale (0 no effect, 100 complete control)
# [19] = preemergence, 125 g ai/ha, 13 to 15 days, scale 0 to 100, 0 = no effect, 100 = complete control
smiles,measurement,setting,value
CCCNC(=O)c1cc(CC)n(Cc2nc(C(F)(F)F)nn2C)n1 [Compound 109],Barnyardgrass plant response rating,barnyardgrass [1]; [8],90
same,Barnyardgrass plant response rating,barnyardgrass [1]; [9],90
same,"Plant response rating (scale of 0 to 100 where 0 is no effect and 100 is complete control), Oat, Wild","oat, wild",0
same,"Oat, Wild plant response rating","oat, wild",5
same,"Plant response rating, Oat, Wild","oat, wild; [10]",5
same,"Plant response rating, Oat, Wild","oat, wild; [11]",5
same,"Plant response rating (scale of 0 to 100 where 0 is no effect and 100 is complete control), Kochia",kochia,50
same,Kochia plant response rating,kochia,75
same,"Plant response rating, Kochia",kochia; [10],90
same,"Plant response rating, Kochia",kochia; [11],90
same,Barnyardgrass plant response rating,barnyardgrass [2]; [12],100
same,Barnyardgrass plant response rating,barnyardgrass [2]; [13],100
same,Pigweed plant response rating,pigweed; [8],90
same,Pigweed plant response rating,pigweed; [9],90
same,"Plant response rating (scale of 0 to 100 where 0 is no effect and 100 is complete control), Oilseed Rape",oilseed rape,40
same,Oilseed Rape plant response rating,oilseed rape,45
same,"Plant response rating, Oilseed Rape",oilseed rape; [10],50
same,"Plant response rating, Oilseed Rape",oilseed rape; [11],45
same,"Plant response rating (scale of 0 to 100), Barnyardgrass",barnyardgrass [3],100
same,Barnyardgrass plant response rating,barnyardgrass [3]; [14],100
same,Barnyardgrass plant response rating,barnyardgrass [3]; [15],100
same,Barnyardgrass plant response rating,barnyardgrass [3]; [16],100
same,Morningglory plant response rating,morningglory [4]; [8],100
same,Morningglory plant response rating,morningglory [4]; [9],90
same,"Plant response rating (scale of 0 to 100 where 0 is no effect and 100 is complete control), Ryegrass, Italian","ryegrass, Italian",5
same,"Ryegrass, Italian plant response rating","ryegrass, Italian",5
same,"Plant response rating, Ryegrass, Italian","ryegrass, Italian; [10]",10
same,"Plant response rating, Ryegrass, Italian","ryegrass, Italian; [11]",5
same,"Plant response rating (scale of 0 to 100), Crabgrass, Large","crabgrass, large [5]",100
same,"Crabgrass, Large plant response rating","crabgrass, large [5]; [17]",90
same,"Crabgrass, Large plant response rating","crabgrass, large [5]; [15]",100
same,"Crabgrass, Large plant response rating","crabgrass, large [5]; [16]",100
same,"Plant response rating (scale of 0 to 100), Nutsedge, Yellow","nutsedge, yellow",60
same,"Nutsedge, Yellow plant response rating","nutsedge, yellow; [17]",5
same,"Nutsedge, Yellow plant response rating","nutsedge, yellow; [15]",25
same,"Nutsedge, Yellow plant response rating","nutsedge, yellow; [16]",40
same,Corn plant response rating,corn; [8],90
same,Corn plant response rating,corn; [9],80
same,"Plant response rating (scale of 0 to 100 where 0 is no effect and 100 is complete control), Soybean",soybean,55
same,Soybean plant response rating,soybean,60
same,"Plant response rating, Soybean",soybean; [10],75
same,"Plant response rating, Soybean",soybean; [11],75
same,"Plant response rating (scale of 0 to 100), Morningglory",morningglory [6],100
same,Morningglory plant response rating,morningglory [6]; [17],95
same,Morningglory plant response rating,morningglory [6]; [15],100
same,Morningglory plant response rating,morningglory [6]; [16],100
same,"Plant response rating (scale of 0 to 100), Velvetleaf",velvetleaf,100
same,Velvetleaf plant response rating,velvetleaf; [17],10
same,Velvetleaf plant response rating,velvetleaf; [15],80
same,Velvetleaf plant response rating,velvetleaf; [16],100
same,"Crabgrass, Large plant response rating","crabgrass, large [7]; [8]",90
same,"Crabgrass, Large plant response rating","crabgrass, large [7]; [9]",90
CCONC(=O)c1cc(CC)n(Cc2ccnc(OC(F)F)c2)n1 [Compound 131],Barnyardgrass plant response rating,barnyardgrass [1]; [18],90
same,Barnyardgrass plant response rating,barnyardgrass [1]; [9],80
same,"Plant response rating (scale of 0 to 100 where 0 is no effect and 100 is complete control), Oat, Wild","oat, wild",5
same,"Oat, Wild plant response rating","oat, wild",10
same,"Plant response rating, Oat, Wild","oat, wild; [10]",10
same,"Plant response rating, Oat, Wild","oat, wild; [11]",15
same,"Plant response rating (scale of 0 to 100 where 0 is no effect and 100 is complete control), Kochia",kochia,40
same,Kochia plant response rating,kochia,70
same,"Plant response rating, Kochia",kochia; [10],75
same,"Plant response rating, Kochia",kochia; [11],70
same,Barnyardgrass plant response rating,barnyardgrass [2]; [12],100
same,Barnyardgrass plant response rating,barnyardgrass [2]; [13],100
same,Pigweed plant response rating,pigweed; [18],100
same,Pigweed plant response rating,pigweed; [9],100
same,"Plant response rating (scale of 0 to 100 where 0 is no effect and 100 is complete control), Oilseed Rape",oilseed rape,30
same,Oilseed Rape plant response rating,oilseed rape,35
same,"Plant response rating, Oilseed Rape",oilseed rape; [10],60
same,"Plant response rating, Oilseed Rape",oilseed rape; [11],40
same,"Plant response rating (scale of 0 to 100), Barnyardgrass",barnyardgrass [3],100
same,Barnyardgrass plant response rating,barnyardgrass [3]; [14],55
same,Barnyardgrass plant response rating,barnyardgrass [3]; [15],95
same,"Plant response rating, Barnyardgrass",barnyardgrass [3]; [19],100
same,Morningglory plant response rating,morningglory [4]; [18],100
same,Morningglory plant response rating,morningglory [4]; [9],90
same,"Plant response rating (scale of 0 to 100 where 0 is no effect and 100 is complete control), Ryegrass, Italian","ryegrass, Italian",5
same,"Ryegrass, Italian plant response rating","ryegrass, Italian",5
same,"Plant response rating, Ryegrass, Italian","ryegrass, Italian; [10]",10
same,"Plant response rating, Ryegrass, Italian","ryegrass, Italian; [11]",10
same,"Plant response rating (scale of 0 to 100), Crabgrass, Large","crabgrass, large [5]",100
same,"Crabgrass, Large plant response rating","crabgrass, large [5]; [17]",90
same,"Crabgrass, Large plant response rating","crabgrass, large [5]; [15]",100
same,"Plant response rating, Crabgrass, Large","crabgrass, large [5]; [19]",100
same,"Plant response rating (scale of 0 to 100), Nutsedge, Yellow","nutsedge, yellow",90
same,"Nutsedge, Yellow plant response rating","nutsedge, yellow; [17]",45
same,"Nutsedge, Yellow plant response rating","nutsedge, yellow; [15]",50
same,"Plant response rating, Nutsedge, Yellow","nutsedge, yellow; [19]",95
same,Corn plant response rating,corn; [18],100
same,Corn plant response rating,corn; [9],80
same,"Plant response rating (scale of 0 to 100 where 0 is no effect and 100 is complete control), Soybean",soybean,20
same,Soybean plant response rating,soybean,25
same,"Plant response rating, Soybean",soybean; [10],80
same,"Plant response rating, Soybean",soybean; [11],35
same,"Plant response rating (scale of 0 to 100), Morningglory",morningglory [6],100
same,Morningglory plant response rating,morningglory [6]; [17],40
same,Morningglory plant response rating,morningglory [6]; [15],100
same,"Plant response rating, Morningglory",morningglory [6]; [19],100
same,"Plant response rating (scale of 0 to 100), Velvetleaf",velvetleaf,100
same,Velvetleaf plant response rating,velvetleaf; [17],25
same,Velvetleaf plant response rating,velvetleaf; [15],80
same,"Plant response rating, Velvetleaf",velvetleaf; [19],100
same,"Crabgrass, Large plant response rating","crabgrass, large [7]; [18]",90
same,"Crabgrass, Large plant response rating","crabgrass, large [7]; [9]",70
